Activity calls are given as the source filed them. The rule behind the calls is not given here. Starred links: 1 amine or outer side, 2 acyl side, 3 side chain; linkers in the order of their positions; H or OH if unused. Residues, ends and D or L forms follow the SMILES beside them. *: point of attachment. X1 = COc1cc(NC(C)CCCNC(=O)C(N)CSSCC(N)C(=O)NC(=O)[C@H](CC(C)C)N*)c2ncccc2c1; Primaquine = COc1cc(NC(C)CCCN*)c2ncccc2c1; Suc = O=C(CCC(=O)[*:2])[*:1]

One data set concerns Huh-7. In words: Cytotoxicity against human HuH7 cells assessed as reduction in cell viability at 1 to 10 uM. The data set is classed as cell-based. Conditions: huh-7, 10 µM.
Another data set has as its system Plasmodium berghei. Kind of data set: Antiplasmodial activity against Plasmodium berghei liver-stage forms at 1 to 10 uM. The data set is classed as functional, organism-based.

For `CC[C@H](C)[C@H](NC(=O)[C@H](CCCNC(=N)N)NC(=O)[C@@H](NC(=O)[C@H](C)NC(=O)[C@@H](NC(=O)[C@@H](NC(=O)[C@H](CC(C)C)NC(=O)[C@H](CCCNC(=N)N)NC(=O)[C@@H](NC(=O)CCC(=O)NCCCC(C)Nc1cc(OC)cc2cccnc12)C(C)C)[C@@H](C)CC)C(C)C)C(C)C)C(=O)N[C@@H](Cc1c[nH]c2ccccc12)C(=O)N[C@@H](CCCNC(=N)N)C(=O)N[C@@H](CCCNC(=N)N)C(=O)O` (some centres undefined) ({Primaquine-Suc}-VRLIVAVRIWRR-OH), the Activity result with Huh-7 was “Non-Toxic”. In addition, in the data set with Plasmodium berghei, the result was inactive.

With `CC[C@H](C)[C@H](NC(=O)[C@H](CCCCN)NC(=O)[C@H](CCCCN)NC(=O)[C@H](C)NC(=O)[C@H](CC(C)C)NC(=O)[C@H](C)NC(=O)[C@H](C)NC(=O)[C@H](CC(C)C)NC(=O)[C@H](C)NC(=O)[C@H](CCCCN)NC(=O)[C@H](CC(C)C)NC(=O)[C@H](CC(N)=O)NC(=O)[C@@H](NC(=O)[C@H](CCCCN)NC(=O)CNC(=O)[C@H](CC(C)C)NC(=O)[C@H](CC(C)C)NC(=O)[C@H](Cc1ccc(O)cc1)NC(=O)CNC(=O)[C@H](C)NC(=O)CCC(=O)NCCCC(C)Nc1cc(OC)cc2cccnc12)[C@@H](C)CC)C(=O)N[C@@H](CC(C)C)C(=O)O` (some centres undefined), the Activity entry in the data set on Huh-7 is “Non-Toxic”. Moreover, the result in the data set with Plasmodium berghei was Active.

Turning to `COc1cc(NC(C)CCCN)c2ncccc2c1` (centres undefined) [PRIMAQUINE], the Activity entry in the data set on Huh-7 is listed as “Non-Toxic”. In addition, the result with Plasmodium berghei was Active.

As for `CC[C@H](C)[C@H](NC(=O)[C@H](CCCCN)NC(=O)[C@H](CCCCN)NC(=O)[C@H](C)NC(=O)[C@H](CC(C)C)NC(=O)[C@H](C)NC(=O)[C@H](C)NC(=O)[C@H](CC(C)C)NC(=O)[C@H](C)NC(=O)[C@H](CCCCN)NC(=O)[C@H](CC(C)C)NC(=O)[C@H](CC(N)=O)NC(=O)[C@@H](NC(=O)[C@H](CCCCN)NC(=O)CNC(=O)[C@H](CC(C)C)NC(=O)[C@H](CC(C)C)NC(=O)[C@H](Cc1ccc(O)cc1)NC(=O)CNC(=O)[C@H](C)N)[C@@H](C)CC)C(=O)N[C@@H](CC(C)C)C(=O)NC(=O)C(N)CSSCC(N)C(=O)NCCCC(C)Nc1cc(OC)cc2cccnc12` (some centres undefined) (H-AGYLLGKINLKALAALAKKI-X1), the Activity result in the data set with Huh-7 is recorded as “Toxic”. Besides, the outcome with Plasmodium berghei was Active.

Regarding H-FFLIPKGGRKKRRQRRRPPQ-OH, the Activity result in the data set with Huh-7 is given as “Non-Toxic”. Besides, in the data set with Plasmodium berghei, the outcome was Active.

For the molecule `CC[C@H](C)[C@H](NC(=O)[C@H](CCCCN)NC(=O)[C@H](CCCCN)NC(=O)[C@H](C)NC(=O)[C@H](CC(C)C)NC(=O)[C@H](C)NC(=O)[C@H](C)NC(=O)[C@H](CC(C)C)NC(=O)[C@H](C)NC(=O)[C@H](CCCCN)NC(=O)[C@H](CC(C)C)NC(=O)[C@H](CC(N)=O)NC(=O)[C@@H](NC(=O)[C@H](CCCCN)NC(=O)CNC(=O)[C@H](CC(C)C)NC(=O)[C@H](CC(C)C)NC(=O)[C@H](Cc1ccc(O)cc1)NC(=O)CNC(=O)[C@H](C)NC(=O)[C@H](CO)NC(=O)[C@H](CC(N)=O)NC(=O)[C@H](CC(C)C)NC(=O)[C@@H](NC(=O)[C@H](Cc1c[nH]c2ccccc12)NC(=O)CN)[C@@H](C)O)[C@@H](C)CC)C(=O)N[C@@H](CC(C)C)C(=O)O`, the Activity entry with Huh-7 is “Non-Toxic”. Also, in the data set with Plasmodium berghei, the outcome was inactive.

Turning to `CC[C@H](C)[C@H](NC(=O)[C@H](CCCCN)NC(=O)[C@H](CCCCN)NC(=O)[C@H](C)NC(=O)[C@H](CC(C)C)NC(=O)[C@H](C)NC(=O)[C@H](C)NC(=O)[C@H](CC(C)C)NC(=O)[C@H](C)NC(=O)[C@H](CCCCN)NC(=O)[C@H](CC(C)C)NC(=O)[C@H](CC(N)=O)NC(=O)[C@@H](NC(=O)[C@H](CCCCN)NC(=O)CNC(=O)[C@H](CC(C)C)NC(=O)[C@H](CC(C)C)NC(=O)[C@H](Cc1ccc(O)cc1)NC(=O)CNC(=O)[C@H](C)N)[C@@H](C)CC)C(=O)N[C@@H](CC(C)C)C(=O)O`, the Activity entry with Huh-7 is recorded as “Non-Toxic”. In addition, the result in the data set with Plasmodium berghei was Active.

For the molecule `COc1cc(NC(C)CCCNC(=O)CCC(=O)N[C@@H](CCCNC(=N)N)C(=O)N[C@@H](CCCCN)C(=O)N[C@@H](CCCCN)C(=O)N[C@@H](CCCNC(=N)N)C(=O)N[C@@H](CCCNC(=N)N)C(=O)N[C@@H](CCC(N)=O)C(=O)N[C@@H](CCCNC(=N)N)C(=O)N[C@@H](CCCNC(=N)N)C(=O)N[C@@H](CCCNC(=N)N)C(=O)N2CCC[C@H]2C(=O)N2CCC[C@H]2C(=O)N[C@@H](CCC(N)=O)C(=O)O)c2ncccc2c1` (some centres undefined) ({Primaquine-Suc}-RKKRRQRRRPPQ-OH), the Activity entry in the data set on Huh-7 is reported as “Non-Toxic”. The outcome with Plasmodium berghei was Active.

Regarding H-RKKRRQRRRPPQ-OH, the Activity result with Huh-7 was “Non-Toxic”. For the same molecule, in the data set on Plasmodium berghei, the outcome was Active.

As for `CC[C@H](C)[C@H](NC(=O)[C@H](CC(C)C)NC(=O)[C@H](Cc1ccccc1)NC(=O)[C@H](Cc1ccccc1)NC(=O)CCC(=O)NCCCC(C)Nc1cc(OC)cc2cccnc12)C(=O)N1CCC[C@H]1C(=O)N[C@@H](CCCCN)C(=O)NCC(=O)NCC(=O)N[C@@H](CCCNC(=N)N)C(=O)N[C@@H](CCCCN)C(=O)N[C@@H](CCCCN)C(=O)N[C@@H](CCCNC(=N)N)C(=O)N[C@@H](CCCNC(=N)N)C(=O)N[C@@H](CCC(N)=O)C(=O)N[C@@H](CCCNC(=N)N)C(=O)N[C@@H](CCCNC(=N)N)C(=O)N[C@@H](CCCNC(=N)N)C(=O)N1CCC[C@H]1C(=O)N1CCC[C@H]1C(=O)N[C@@H](CCC(N)=O)C(=O)O` (some centres undefined) ({Primaquine-Suc}-FFLIPKGGRKKRRQRRRPPQ-OH), in the data set on Huh-7, the Activity result is on record as “Non-Toxic”.

(Values after ChEMBL document CHEMBL4480365, “Coupling the cell-penetrating peptides transportan and transportan 10 to primaquine enhances its activity against liver-stage malaria parasites” (Medchemcomm, 2019).)
